In patent US10125119B2, “Series of resveratrol-derivative fluorescently labeled molecules and synthesis method thereof” (Hangzhou Normal University, priority 2017, dated 2018):

**Q.** With `COc1cc(/C=C/c2ccc(Oc3nc(Cl)nc(-n4cc(-c5ccc(C(=C(c6ccccc6)c6ccccc6)c6ccccc6)cc5)nn4)n3)cc2)cc(OC)c1` [Product (I)] as the molecule, how does the melting point read?
**A.** 165 to 166 °C
